These are literature values, as cited in patent US20080032891A1, “DEFOLIANT COMPOSITION AND METHOD” (ARYSTA L[…] AMERICA CORPORATION, priority 2006, published 2008).

Regarding `CN(C)C(=O)Nc1ccc(Cl)c(Cl)c1` [diuron, 3-(3,4-dichlorophenyl)-1,1-dimethylurea], the solubility in water entry is recorded as “insoluble in water”.
As to `O=C(Nc1ccccc1)Nc1cnns1` [Thidiazuron, 1-phenyl-3-(1,2,3-thiadiazol-5-yl)-urea], the solubility in water entry is “insoluble in water”.
